How the values were obtained:
[1] = biological target: T1, synthetic PAR1 peptide (TR33-62) (Homo sapiens, UniProt P25116); experiment: Cleavage of synthetic PAR1 peptide TR33-62 by APC or thrombin, reverse phase HPLC and MALDI-TOF; format: biochemical; details: APC 500 nM or thrombin 5 nM, TR33-62 100 μM, HBS pH 7.4
T1 construct: purchased Biosynthesis; host or cells: chemical synthesis
T1 sequence (P25116 33-62 limits assumed): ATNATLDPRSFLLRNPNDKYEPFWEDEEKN
Excerpt: Samples were subjected to reverse phase HPLC on a C18 column while the eluent was monitored at 214 nm during a 0%-67% gradient of acetonitrile in water containing 0.1% trifluoroacetic acid. Peptide fragments were collected and subjected to MALDI-TOF (Scripps mass spectrometry core facility) analysis.

[2] = biological target: T2, endogenous PAR1 on EA.hy.926 endothelial cells (Homo sapiens, UniProt P25116); experiment: On cell Western (OCW) immunoassay of PAR1 cleavage on EA.hy.926 endothelial cells; format: cell-based; details: 1 hr at 4° C., 0.5 nM thrombin or 25 nM APC
T2 construct: untransfected EA.hy.926 endothelial cells expressing endogenous EPCR and PAR1; host or cells: EA.hy.926 endothelial cells
T2 sequence (P25116 22-425): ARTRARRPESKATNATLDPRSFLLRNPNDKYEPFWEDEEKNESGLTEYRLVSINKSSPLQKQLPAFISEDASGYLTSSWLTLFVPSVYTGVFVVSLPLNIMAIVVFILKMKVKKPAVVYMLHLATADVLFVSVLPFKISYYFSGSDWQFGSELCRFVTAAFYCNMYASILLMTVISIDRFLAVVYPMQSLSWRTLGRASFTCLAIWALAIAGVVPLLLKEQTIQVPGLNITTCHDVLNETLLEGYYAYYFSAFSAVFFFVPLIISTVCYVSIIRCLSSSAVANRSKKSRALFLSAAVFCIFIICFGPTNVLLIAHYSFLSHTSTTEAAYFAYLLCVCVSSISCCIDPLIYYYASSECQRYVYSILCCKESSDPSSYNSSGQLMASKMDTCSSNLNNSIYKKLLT
Experimental: Subsequently, these antibodies were used in an on cell Western (OCW) immunoassay on EA.hy.926 endothelial cells to determine whether APC cleaves PAR1 at Arg^46 in the presence of endogenous PAR1 and EPCR expression. […] Incubations were performed at 4° C. to minimize receptor recycling and internalization. After fixation and staining, antibody signals were normalized for total cell number using the cell permeable nuclear dye Draq5 and antibody signals for the goat anti-PAR1 antibodies (Ab87 and Origene) and ATAP2 were expressed as a fraction of the signal obtained for WEDE15 reflecting the total PAR1 present on the cell surface.
Detailed methods and steps used for the study shown in FIG. 5 are as follows: EA.hy.926 cells (ATCC: CRL-2922) were grown in black clear bottom 96 well plates (Nunc) in DMEM (Invitrogen #12430) supplemented with glutamax (Invitrogen #35050) and 10% FBS (Hyclone #35-011-CV) in a 37° C. cell incubator with a humidified atmosphere and 5% CO2 in air until confluency. […] After final washing with PBS/0.1% Tween, IR fluorescence of bound antibodies was determined using the Odyssey (Licor). Background fluorescence was determined by omitting the primary antibody and subtracting background values from all observed values.

[3] = test system: VEGF-induced vascular leakage in SKH1 hairless mice; experiment: In vivo vascular permeability assay (modified Miles assay, VEGF-induced Evans blue extravasation in skin); set-up: species or system mouse; details: for decrease in vascular leakage compared to PBS control: 125 μg peptide i.v. retro-orbital 5 min before s.c. VEGF165, Evans blue at 700 nm; for vascular leakage in the absence of VEGF: BSA vehicle sites, 125 μg peptide i.v.
Experimental: To probe whether TR47-66 could induce vascular protective effects in vivo, a modification of the modified Miles assay was used in which vascular permeability is measured by the extravasation of Evans blue dye in the skin induced by local subcutaneous injection of vascular endothelial growth factor (VEGF)165. Immunocompetent SKH1 hairless mice were used to avoid the need for hair removal that often can result in artifactual leakage due to inflammation of the skin. Evans blue extravasation in the skin was quantified using the Odyssey near-infrared fluorescent imager at 700 nm. TR47-66 peptide or the control scrTR47 peptide were injected i.v. in the retro-orbital sinus 5 min before local subcutaneous injection of recombinant murine VEGF or BSA control and 30 min after i.v. administration of Evans blue. In the absence of TR47-66 (PBS control), VEGF induced clearly distinguishable areas of Evans blue extravasation, whereas after injection of BSA vehicle control only the needle points marking the injection site could be observed. Quantification of Evans blue extravasation by near infrared fluorescence at 700 nm eliminated the time consuming need for Evans blue extraction from punch biopsy and provided reliable and reproducible results. […] Thus, like APC, the TR47 peptide causes activation of Rac1, stabilizes endothelial barriers in vitro, and in vivo can markedly reduce vascular leakage. The study was approved by the Institutional Animal Care and Use Committee of The Scripps Research Institute and complied with National Institutes of Health guidelines. SK1H1-E hairless male (6 to 8 weeks old) were from Charles River Labs (Wilmington, Mass.). Vascular permeability was determined using a known VEGF-induced leakage model (Sanna et al., Nat. Chem. Biol. 2006; 2(8):434-441; and Miles et al., J Physiol 1952; 118(2):228-257) with some modifications. Briefly, 100 μL of a sterile-filtered solution containing 0.5% (w/v) Evans blue (Sigma) in 0.9% NaCl (Sigma) was injected in isofluran-anesthetized mice. After 30 min, 50 μL of peptides (125 μg; TR47 or scrTR47) or PBS were injected intravenously in the retro-orbital sinus of mice anesthetized with Ketamin-Xylazin (100 and 10 mg/kg, respectively). After 5 min, mice received subcutaneously 15 μL of 75 ng/injection recombinant mouse VEGF165 (BioVision, Milpitas, Calif.) in 0.1% BSA-PBS (3 sites on the right side of the abdomen) or vehicle (2 sites on the left side). After 30 min, mice were sacrificed, photographed, and Evans blue extravasation in the skin was determined using the Odyssey Imager (LI-COR Biosciences, Lincoln, Nebr.) in the 700 nm channel with 4 mm offset. Quantification of the intensity of the Evans blue dye signal was done using the Odyssey Application Software version 3.0. […]

Substance | cleavage sites in TR33-62 peptide [1] | decrease of ATAP2 signal compared to WEDE15 [2] | decrease in vascular leakage compared to PBS control [3] | vascular leakage in the absence of VEGF [3]
APC: Activated Protein C, serine protease with anticoagulant and cytoprotective cell signaling activities | cleaves this PAR1 peptide at Arg^46 as well as at Arg^41 | 50% | – | –
GDENENEKPNWYELKEPDSF (scrambled sequence) [scr-TR47-66, control scrambled TR47-66 peptide containing scrambled residues 47-66, reference compound] | – | – | indiscriminate from PBS control | Neither TR47-66 nor scrTR47 affected vascular leakage
NPNDKYEPFWEDEEKNESGL (listed as Homo sapiens) [TR47-66] | – | – | 45% | Neither TR47-66 nor scrTR47 affected vascular leakage
thrombin | cleavage at Arg^41 | not significantly different | – | –

Reference: patent US10273279B2, “Protease activated receptor-1 (PAR1) derived cytoprotective polypeptides and related methods” (THE SCRIPPS RESEARCH INSTITUTE, priority 2011, dated 2019)
